Laboratory results from US8835422B2, “Substituted imidazoheterocycle derivatives” (Cara Therapeutics, Inc., priority 2008, dated 2014).
Where two headings read alike, the source gives them in different places.

How the values were obtained:
[1] = biological target: human CB1 receptor (hCB1) (Homo sapiens, UniProt P21554); assay: cAMP assay (LANCE TR-FRET) in CHO-K1 cells stably expressing hCB1; type: cell-based
Protocol: (§1) The ability of compounds to act as agonists or inverse agonists at human CB2 and CB1 receptors (hCB2, hCB1, respectively) and at the rat CB2 receptor (rCB2) was determined by measuring changes in intracellular cAMP levels. Chinese Hamster Ovary (CHO-K1) cell lines stably expressing hCB2 (Genebank: X74328) or hCB1 (Genebank: X54937) were purchased from Euroscreen (Gosselies, Belgium). The rat CB2 receptor was expressed from genomic DNA (provided by M. Abood, California Pacific Medical Center) in CHO-K1 cells from expression plasmid vector, pcDNA3.1.
(§2) Receptor mediated responses were determined by measuring changes in intracellular cAMP using LANCE cAMP detection kit (cat #AD0264, Perkin Elmer, Wellesley, Mass.) based on time-resolved fluorescence resonance energy transfer (TR-FRET).
(§3) On the day of the experiment, cells were spun at low speed for 5 min at room temperature. […] Cell clumps were removed by filtering through cell strainer 40 μm (BD Falcon, Discovery Labware, Bedford, Mass.) and diluted to 2×10^5 cells/mL. Antibody supplied with the LANCE cAMP immunoassay kit was then added according to the manufacturer's instructions. An aliquot of cells was taken for un-induced controls. […] Cells were then incubated for 30 min at room temperature prior to adding to Proxiplates containing test compounds (final DMSO concentration was less than 0.5%) with a Multidrop bulk dispenser, followed by a sixty minute incubation at room temperature. The response was stopped by addition of the detection mix supplied with the LANCE kit. The reagents were allowed to equilibrate for three hours prior to reading on an Envision multi-mode detector (Perkin-Elmer). TR-FRET was measured using a 330-380 nm excitation filter, a 665 nm emission filter, dichroic mirror 380 nm and Z=1 mm. Cyclic AMP concentrations in each well were back-calculated from a cAMP standard curve run concurrently during each assay. Each plate contained 16 wells of forskolin stimulated cells and 16 wells of forskolin plus CP55,940-treated cells. […] Concentrations of cAMP were expressed as a percent of the difference of these two groups of wells.

[2] = test system: acetic acid-induced writhing; assay: Inhibition of acetic acid-induced writhing in mice; type: in vivo, Male ICR mice; conditions: dose of 10 mg/kg, subcutaneous, 30 min before acetic acid; writhes over 15 min
Description: 12: 525-562; Ramabadran and Bansinath (1986) Pharm. Res. 3: 263-270]. Intraperitoneal administration of dilute acetic acid solution causes a writhing behavior in mice. A writhe is defined as a contraction of the abdominal muscles accompanied by an extension of the forelimbs and elongation of the body. The number of writhes observed in the presence and absence of test compounds is counted to determine the analgesic activity of the compounds.
Male ICR mice, 20-40 grams in weight, were weighed and placed in individual observation chambers (usually a 4000 ml beaker) with a fine layer of rodent bedding at the bottom. To determine the activity and potency of test compounds, different doses of the compound solution or vehicle were injected subcutaneously in the back of the neck 30 minutes prior to administration of acetic acid solution. After administration of the compound or vehicle control, mice were returned to their individual observation chambers awaiting the intraperitoneal administration of acetic acid solution. Thirty minutes later, 10 ml/kg of a 0.6% (v/v) acetic acid solution was then injected into the right lower quadrant of the abdomen. Immediately after the injection, the mouse was returned to its observation chamber and the recording of the number of writhes is begun immediately. The number of writhes was counted over a 15-min period starting from the time of acetic acid injection. Raw data were analyzed using a one-way ANOVA followed by Dunnett's post-tests.
For dose-response analysis, raw data were converted to % maximum possible effect (% MPE) using the formula: % MPE=((Wc−Wv)/(0−Wv))×100, where Wc is the number of writhes in compound-treated mice and Wv is the mean number of writhes in vehicle-treated mice. The dose which elicited 50% attenuation of hypersensitivity (ED50) was determined using linear regression analysis. (Tallarida & Murray, 1987).

[3] = biological target: T1, human CB2 receptor (hCB2) (Homo sapiens, UniProt P34972); assay: cAMP assay (LANCE TR-FRET) in CHO-K1 cells stably expressing hCB2; type: cell-based
T1 construct: host or cells: CHO-K1
T1 sequence (P34972 whole entry): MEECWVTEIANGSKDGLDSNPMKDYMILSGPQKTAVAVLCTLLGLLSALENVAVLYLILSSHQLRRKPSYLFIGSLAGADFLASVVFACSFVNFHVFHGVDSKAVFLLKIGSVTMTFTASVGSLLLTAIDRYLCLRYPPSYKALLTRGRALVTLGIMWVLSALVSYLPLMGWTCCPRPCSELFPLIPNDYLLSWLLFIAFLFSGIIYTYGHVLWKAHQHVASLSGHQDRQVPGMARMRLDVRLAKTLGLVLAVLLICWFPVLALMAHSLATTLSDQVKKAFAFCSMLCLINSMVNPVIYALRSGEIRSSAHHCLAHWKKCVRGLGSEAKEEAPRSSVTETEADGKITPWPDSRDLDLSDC
Protocol: as §1, §2, §3

[4] = test system: CFA-induced thermal hyperalgesia; assay: CFA model of acute inflammation: thermal hyperalgesia (paw withdrawal latency); type: in vivo, Male Sprague-Dawley rats; conditions: for Attenuation (sec.) of CFA-induced thermal hyperalgesia (mean PWL ± SEM): p.o., vehicle 4.3 ± 0.2, naive 10.3 ± 0.3
Protocol: The anti-hyperalgesic effects of test compounds in the Complete Freund's Adjuvant (CFA) model of inflammatory pain were examined as described below. Male Sprague-Dawley rats (Hsd:Sprague-Dawley®™SD®™, Harlan, Indianapolis, Ind.) weighing about 200 grams, were housed three per cage. Test compound and ibuprofen (Sigma, cat 11892) were each prepared in a mixture of 1:1:18 ethanol:cremophor EL:water. Groups of six animals were subjected to local inflammation induced by 0.1 mL CFA (Sigma-Aldrich, cat F5881, Mycobacterium tuberculosis 1 mg/ml) injected subcutaneously into the plantar surface of the left paw.
Assessment of thermal hyperalgesia: Paw withdrawal latencies (PWLs) in response to a noxious thermal stimulus (Model #37370, Ugo Basile, Cat #55370) were obtained before and 24 hours after intraplantar administration of CFA. Rats were placed in plexi-glass chambers (10×21×14 cm) on top of a glass platform (un-heated) and allowed to acclimate for approximately 15 min before testing. Each rat received 3 trials separated by approx. 3 min each and these scores were averaged to provide the final PWL. The mean and standard error of the mean (SEM) were determined for the injured paw in each treatment group. Significant reductions in PWLs (i.e., increased sensitivity to a noxious stimulus) were interpreted as the presence of thermal hyperalgesia. To avoid tissue damage, a cut-off latency of 20 seconds was employed. These behavioral assessments were carried-out under blinded conditions (i.e., compound preparation and animal dosing was performed by someone other than the person carrying out the behavioral assessments). Ibuprofen (100 mg/kg, p.o.) was used as the positive control. The mean and SEM were determined for the injured and normal paws for each treatment group. CFA produces a significant increase in sensitivity to noxious thermal stimuli as PWLs decreased from a pre-CFA baseline of 10.3±0.3 sec to a value of 4.3±0.2 sec (p≦0.05, paired t-test). […] Compound 1-10 at a dose of 3 mg/kg produced a significant increase in PWLs (p<0.01, Bonferroni post-test) that persisted for at least 4 hours post-dosing.

rat CB2 receptor (rCB2) = biological target: T2, rat CB2 receptor (rCB2) (Rattus norvegicus, UniProt Q9QZN9); assay: cAMP assay (LANCE TR-FRET) in CHO-K1 cells expressing rat CB2; type: cell-based
T2 construct: expressed in transfected cells; host or cells: CHO-K1 (plasmid pcDNA3.1)
T2 sequence (Q9QZN9 1-360): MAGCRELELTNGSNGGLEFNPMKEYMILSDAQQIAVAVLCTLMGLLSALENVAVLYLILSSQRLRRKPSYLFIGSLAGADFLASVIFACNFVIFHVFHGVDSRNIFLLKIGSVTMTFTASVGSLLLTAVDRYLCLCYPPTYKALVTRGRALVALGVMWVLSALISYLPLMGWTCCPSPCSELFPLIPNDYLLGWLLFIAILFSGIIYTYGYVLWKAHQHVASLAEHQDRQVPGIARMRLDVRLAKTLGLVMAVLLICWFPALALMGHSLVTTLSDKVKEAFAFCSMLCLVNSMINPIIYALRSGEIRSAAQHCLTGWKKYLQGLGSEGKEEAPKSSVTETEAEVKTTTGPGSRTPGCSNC
Protocol: as §1, §2, §3

Chain of human CB1 receptor (hCB1) (P21554 whole entry): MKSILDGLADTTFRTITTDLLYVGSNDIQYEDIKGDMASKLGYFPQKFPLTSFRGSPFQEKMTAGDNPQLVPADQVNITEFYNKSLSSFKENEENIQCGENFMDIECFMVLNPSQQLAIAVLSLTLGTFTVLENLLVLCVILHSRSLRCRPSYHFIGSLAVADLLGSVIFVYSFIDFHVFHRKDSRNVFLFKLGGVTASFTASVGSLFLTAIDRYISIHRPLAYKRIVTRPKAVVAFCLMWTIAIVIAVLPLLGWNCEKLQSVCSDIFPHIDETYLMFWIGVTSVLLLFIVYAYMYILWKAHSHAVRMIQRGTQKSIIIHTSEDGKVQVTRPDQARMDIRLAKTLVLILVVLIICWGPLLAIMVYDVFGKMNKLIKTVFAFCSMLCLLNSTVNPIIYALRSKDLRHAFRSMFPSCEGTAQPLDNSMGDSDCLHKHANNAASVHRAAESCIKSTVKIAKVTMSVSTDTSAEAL

## CNC(=O)[C@@H](NC(=O)c1nc(-c2ccccc2)n2c1CCCCC2)C(C)(C)C [Compound 1-1, (S)—N-(3,3-dimethyl-1-(methylamino)-1-oxobutan-2-yl)-3-phenyl-6,7,8,9-tetrahydro-5H-imidazo[1,5-a]azepine-1-carboxamide]
[1]
  EC50: 10 to 100 nM
[2]
  % maximum possible effect (% MPE), writhing: greater than fifty
[3]
  EC50: 0.1 to 10 nM

## CNC(=O)[C@@H](NC(=O)c1nc(-c2ccc(F)c(F)c2)n2c1CCCCC2)C(C)(C)C [Compound 1-2, (S)-3-(3,4-difluorophenyl)-N-(3,3-dimethyl-1-(methylamino)-1-oxobutan-2-yl)-6,7,8,9-tetrahydro-5H-imidazo[1,5-a]azepine-1-carboxamide]
[1]
  EC50: 0.1 to 10 nM
[2]
  % maximum possible effect (% MPE), writhing: greater than fifty
[3]
  EC50: 0.1 to 10 nM

## CNC(=O)[C@@H](NC(=O)c1nc(-c2cc(F)ccc2F)n2c1CCCCC2)C(C)(C)C [Compound 1-3, (S)-3-(2,5-difluorophenyl)-N-(3,3-dimethyl-1-(methyl-amino)-1-oxobutan-2-yl)-6,7,8,9-tetrahydro-5H-imidazo[1,5-a]azepine-1-carboxamide]
[1]
  EC50: 0.1 to 10 nM
[2]
  % maximum possible effect (% MPE), writhing: greater than fifty
[3]
  EC50: 0.1 to 10 nM

## CNC(=O)[C@@H](NC(=O)c1nc(-c2ccc(F)c(F)c2)n2c1COCCC2)C(C)(C)C [Compound 1-10, (S)-3-(3,4-difluorophenyl)-N-(3,3-dimethyl-1-(methylamino)-1-oxobutan-2-yl)-5,6,7,9-tetrahydroimidazo[5,1-c][1,4]oxazepine-1-carboxamide]
[1]
  EC50: 10 to 100 nM
[3]
  EC50: 10 to 100 nM
[4]; 3 mg/kg p.o., p<0.01, Bonferroni post-test
  Persistence of significant increase in PWLs post-dosing: at least 4 hours
[4]; 3 mg/kg, 1 hr
  Attenuation (sec.) of CFA-induced thermal hyperalgesia (mean PWL ± SEM): 6.5 ± 0.5 s
[4]; 3 mg/kg, 4 hr
  Attenuation (sec.) of CFA-induced thermal hyperalgesia (mean PWL ± SEM): 6.3 ± 0.3 s
[4]; oral (p.o.) administration
  Reversal of CFA-induced thermal hyperalgesia: significant reversal

## CNC(=O)[C@@H](NC(=O)c1nc(-c2ccccc2)n2c1CCN(C)CC2)C(C)(C)C [Compound 3-9, (S)-N-(3,3-dimcthyl-1-(methylamino)-1-oxobutan-2-yl)-7-methyl-3-phenyl-6,7,8,9-tetrahydro-5H-imidazo[1,5-d][1,4]diazepine-1-carboxamide]
[1]
  EC50: > 10000 nM
[3]
  EC50: > 10000 nM
Rat CB2 receptor (rCB2)
  EC50: > 10000 nM

## CNC(=O)[C@@H](NC(=O)c1nc(-c2ccccc2)n2c1CCN(CC(C)C)CC2)C(C)(C)C [Compound 3-10, (S)-N-(3,3-dimethyl-1-(methylamino)-1-oxobutan-2-yl)-7-isobutyl-3-phenyl-6,7,8,9-tetrahydro-5H-imidazo[1,5-d][1,4]diazepine-1-carboxamide]
Rat CB2 receptor (rCB2)
  EC50: 10 to 100 nM

## CNC(=O)[C@@H](NC(=O)c1nc(-c2ccccc2)n2c1CCN(CC1CC1)CC2)C(C)(C)C [Compound 3-11, (S)-7-(cyclopropylmethyl)-N-(3,3-dimethyl-1-(methylamino)-1-oxobutan-2-yl)-3-phenyl-6,7,8,9-tetrahydro-5H-imidazo[1,5-d][1,4]diazepine-1-carboxamidc]
[1]
  EC50: > 10000 nM
[3]
  EC50: > 10000 nM
Rat CB2 receptor (rCB2)
  EC50: 0.1 to 10 nM

## CNC(=O)[C@@H](NC(=O)c1nc(-c2ccccc2)n2c1CCN(C(C)=O)CC2)C(C)(C)C [Compound 3-12, (S)-7-acetyl-N-(3,3-dimethyl-1-(methylamino)-1-oxobutan-2-yl)-3-phenyl-6,7,8,9-tetrahydro-5H-imidazo[1,5-d][1,4]diazepine-1-carboxamide]
[1]
  EC50: > 10000 nM
[3]
  EC50: > 10000 nM
Rat CB2 receptor (rCB2)
  EC50: > 10000 nM

## CCS(=O)(=O)N1CCc2c(C(=O)N[C@H](C(=O)NC)C(C)(C)C)nc(-c3ccccc3)n2CC1 [Compound 3-14, (S)-N-(3,3-dimethyl-1-(methylamino)-1-oxobutan-2-yl)-7-(ethylsulfonyl)-3-phenyl-6,7,8,9-tetrahydro-5H-imidazo[1,5-d][1,4]diazepine-1-carboxamide]
[1]
  EC50: > 10000 nM
[3]
  EC50: > 10000 nM
Rat CB2 receptor (rCB2)
  EC50: 10 to 100 nM

## CNC(=O)[C@@H](NC(=O)c1nc(-c2ccccc2)n2c1CCN(S(=O)(=O)c1ccc(F)cc1)CC2)C(C)(C)C [Compound 3-15, (S)-N-(3,3-dimethyl-1-(methylamino)-1-oxobutan-2-yl)-7-(4-fluorophenyl-sulfonyl)-3-phenyl-6,7,8,9-tetrahydro-5H-imidazo[1,5-d][1,4]diazepine-1-carboxamide]
Rat CB2 receptor (rCB2)
  EC50: 0.1 to 10 nM

## Cc1nnc(-c2nc(-c3ccc(F)c(F)c3)n3c2CCCCC3)o1 [Compound 4-1, 2-(3-(3,4-difluorophenyl)-6,7,8,9-tetrahydro-5H-imidazo[1,5-a]azepin-1-yl)-5-methyl-1,3,4-oxadiazole]
[3]; text statement b297, read-out: EC50 human CB2 receptor
  EC50: > 10000 nM
Rat CB2 receptor (rCB2); above the detectable range, read-out: EC50 rat CB2 receptor
  EC50: > 10000 nM

## CC(C)Cc1ccc(C(C)C(=O)O)cc1 (stereo not drawn) [Ibuprofen, reference compound]
[4]; 100 mg/kg, 1 hr
  Attenuation (sec.) of CFA-induced thermal hyperalgesia (mean PWL ± SEM): 7.6 ± 0.7 s
[4]; 100 mg/kg, 4 hr
  Attenuation (sec.) of CFA-induced thermal hyperalgesia (mean PWL ± SEM): 7.7 ± 0.6 s
